Experimental data from US20260365670A1, “EGFR INHIBITORS AND USES THEREOF” (DIZAL (JIANGSU) PHARMACEUTICAL CO., LTD., priority 2022, published 2026).
Like-named read-outs stand apart in the source and are kept apart here.

Assays:
[1] = target: T1, EGFR Exon19Del (Homo sapiens, UniProt P00533, DEL746-750); test: Inhibition of EGFR Exon19Del biochemical enzymatic activity (HTRF); details: read-out: IC50 @Del19
T1 construct: purchased Carna Bio
How it was run: (§1)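 Using a high ATP level (1 mM), wild-type and mutant EGFR enzymes were incubated 1 h at room temperature with inhibitor and 1 μM biotinylated TK substrate. Phosphorylation was quantified as the 665/615 nm HTRF ratio. IC50s were derived by logistic fitting.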

[2] = system: PC-9; test: Cell proliferation assay, PC-9 cells (CellTiter-Glo, 72 hours); format: cell-based; details: PC9 cells, read-out: GI50 PC9
How it was run: (§2)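 Ba/F3 cells carrying EGFR mutants (5000/well) or PC-9 cells (500/well) in RPMI1640 were dosed with compound series after overnight attachment and grown 72 h. Viability read by CellTiter-Glo, with day-0 counts subtracted; GI50 from curve fits of % proliferation versus DMSO control.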

[3] = target: T2, EGFR (d746-750 C797S) (Homo sapiens, UniProt P00533, C797S/DEL746-750); test: Inhibition of EGFR (d746-750 C797S) biochemical enzymatic activity (HTRF); details: 1 mM ATP
T2 construct: purchased signalchem
How it was run: as §1

[4] = system: Ba/F3 cells expressing EGFR mutations; test: Cell proliferation assay, Ba/F3 cells expressing EGFR mutations (CellTiter-Glo, 72 hours); format: cell-based
How it was run: as §2

[5] = target: T3, EGFR L858R (Homo sapiens, UniProt P00533, L858R); test: Inhibition of EGFR L858R biochemical enzymatic activity (HTRF); details: 1 mM ATP
T3 construct: purchased Carna Bio
How it was run: as §1

[6] = system: A-431; test: Cell proliferation assay, A-431 cells (GI50, Table 6); format: cell-based
[7] = target: T4, EGFR[T790M/C797S/d746-750] (Homo sapiens, UniProt P00533, C797S/DEL746-750/T790M); test: Inhibition of EGFR[T790M/C797S/d746-750] biochemical enzymatic activity (HTRF)
T4 construct: purchased Carna Bio
How it was run: as §1

[8] = target: T5, EGFR wild type (Homo sapiens, UniProt P00533); test: Inhibition of EGFR wild type biochemical enzymatic activity (HTRF); details: 1 mM ATP
T5 construct: purchased Carna Bio
How it was run: as §1

[9] = target: T6, EGFR (C797S L858R) (Homo sapiens, UniProt P00533, C797S/L858R); test: Inhibition of EGFR (C797S L858R) biochemical enzymatic activity (HTRF); details: 1 mM ATP
T6 construct: purchased signalchem
How it was run: as §1

[10] = target: T7, EGFR L858R/T790M (Homo sapiens, UniProt P00533, L858R/T790M); test: Inhibition of EGFR L858R/T790M biochemical enzymatic activity (HTRF); details: 1 mM ATP
T7 construct: purchased Carna Bio
How it was run: as §1

[11] = target: T8, EGFR Exon19Del/T790M (Homo sapiens, UniProt P00533, DEL746-750/T790M); test: Inhibition of EGFR Exon19Del/T790M biochemical enzymatic activity (HTRF); details: 1 mM ATP
T8 construct: purchased Carna Bio
How it was run: as §1

[12] = target: T9, EGFR[T790M/C797S/L858R] (Homo sapiens, UniProt P00533, C797S/L858R/T790M); test: Inhibition of EGFR[T790M/C797S/L858R] biochemical enzymatic activity (HTRF); details: 1 mM ATP
T9 construct: purchased Carna Bio
How it was run: as §1

[13] = Mus musculus, BaF3, 72 h, BaF3 cells, EGFR DEL19 - C797S, read-out: GI50 DEL19 - C797S/BaF3
[14] = Mus musculus, BaF3, 72 h, BaF3 cells, EGFR DEL19 - T790-C797S, read-out: GI50 DEL19 - T790-C797S/BaF3
[15] = Mus musculus, BaF3, 72 h, BaF3 cells, EGFR L858R - C797S, read-out: GI50 L858R - C797S/BaF3
[16] = Mus musculus, BaF3, 72 h, BaF3 cells, EGFR L858R - T790-C797S, read-out: GI50 L858R - T790-C797S/BaF3
[17] = Mus musculus, BaF3, 72 h, BaF3 cells, EGFR L858R - T790M, read-out: GI50 L858R - T790M/BaF3
[18] = Mus musculus, BaF3, 72 h, BaF3 cells, EGFR L858R, read-out: GI50 L858R/BaF3
[19] = Mus musculus, BaF3, 72 h, EGFR DEL19 - T790M, read-out: GI50 DEL19 - T790M
[20] = Homo sapiens, A-431, A-431 cells
[21] = EGFR Exon19Del, 1 mM ATP, 1 h at room temperature
[22] = EGFR (d746-750 C797S), 1 h at room temperature, read-out: IC50 @Del19-C797S
[23] = 1 h at room temperature, read-out: IC50 @L858R
[24] = EGFR[T790M/C797S/d746-750], 1 mM ATP, 1 h at room temperature, read-out: IC50 @T790M - C797S - Del19
[25] = EGFR wild type, 1 h at room temperature, read-out: IC50 @WT
[26] = EGFR (C797S L858R), 1 h at room temperature, read-out: IC50 @L858-C797S
[27] = EGFR L858R/T790M, 1 h at room temperature, read-out: IC50 @L858R-T790M
[28] = EGFR Exon19Del/T790M, 1 h at room temperature, read-out: IC50 @Del19-T790M
[29] = EGFR[T790M/C797S/L858R], 1 h at room temperature, read-out: IC50 @T790M- C797S - L858R
[30] = BaF3 cells, EGFR DEL19 - C797S, read-out: GI50 DEL19 - C797S/BaF3
[31] = BaF3 cells, EGFR DEL19 - T790-C797S, read-out: GI50 DEL19 - T790-C797S/BaF3
[32] = BaF3 cells, EGFR L858R - C797S, read-out: GI50 L858R - C797S/BaF3
[33] = BaF3 cells, EGFR L858R - T790-C797S, read-out: GI50 L858R - T790-C797S/BaF3
[34] = BaF3 cells, EGFR L858R - T790M, read-out: GI50 L858R - T790M/BaF3
[35] = BaF3 cells, EGFR L858R, read-out: GI50 L858R/BaF3
[36] = EGFR DEL19 - T790M, read-out: GI50 DEL19 - T790M

T5 sequence (P00533 25-1210): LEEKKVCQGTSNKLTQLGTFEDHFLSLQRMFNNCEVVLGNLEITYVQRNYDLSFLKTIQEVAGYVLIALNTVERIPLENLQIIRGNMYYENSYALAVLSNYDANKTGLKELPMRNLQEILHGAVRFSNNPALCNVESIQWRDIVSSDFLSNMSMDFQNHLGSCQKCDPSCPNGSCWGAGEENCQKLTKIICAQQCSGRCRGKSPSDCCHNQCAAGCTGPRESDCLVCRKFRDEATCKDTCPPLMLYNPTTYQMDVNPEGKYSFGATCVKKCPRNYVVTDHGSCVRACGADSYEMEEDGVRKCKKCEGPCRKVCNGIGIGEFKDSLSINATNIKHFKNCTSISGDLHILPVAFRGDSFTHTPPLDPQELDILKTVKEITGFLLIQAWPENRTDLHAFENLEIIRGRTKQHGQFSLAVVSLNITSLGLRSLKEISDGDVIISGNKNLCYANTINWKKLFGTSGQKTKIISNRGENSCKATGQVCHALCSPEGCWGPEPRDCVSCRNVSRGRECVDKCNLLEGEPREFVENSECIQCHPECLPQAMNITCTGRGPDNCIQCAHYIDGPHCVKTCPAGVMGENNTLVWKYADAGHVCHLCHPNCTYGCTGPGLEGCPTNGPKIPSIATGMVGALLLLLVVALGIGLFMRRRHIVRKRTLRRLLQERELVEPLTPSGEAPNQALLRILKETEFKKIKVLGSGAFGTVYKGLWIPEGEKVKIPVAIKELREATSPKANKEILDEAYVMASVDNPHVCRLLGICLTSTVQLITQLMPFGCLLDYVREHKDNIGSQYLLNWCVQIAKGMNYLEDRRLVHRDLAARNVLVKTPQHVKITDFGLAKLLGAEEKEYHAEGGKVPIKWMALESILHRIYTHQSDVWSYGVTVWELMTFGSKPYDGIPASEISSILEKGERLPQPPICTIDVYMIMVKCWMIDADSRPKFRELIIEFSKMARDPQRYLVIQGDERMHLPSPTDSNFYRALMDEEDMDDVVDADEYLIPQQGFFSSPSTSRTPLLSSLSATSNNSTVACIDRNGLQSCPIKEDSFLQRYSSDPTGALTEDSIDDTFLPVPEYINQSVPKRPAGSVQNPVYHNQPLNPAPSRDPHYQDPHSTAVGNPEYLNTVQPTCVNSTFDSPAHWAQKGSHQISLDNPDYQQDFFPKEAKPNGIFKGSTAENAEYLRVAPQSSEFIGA
T3 sequence (P00533 25-1210 L858R): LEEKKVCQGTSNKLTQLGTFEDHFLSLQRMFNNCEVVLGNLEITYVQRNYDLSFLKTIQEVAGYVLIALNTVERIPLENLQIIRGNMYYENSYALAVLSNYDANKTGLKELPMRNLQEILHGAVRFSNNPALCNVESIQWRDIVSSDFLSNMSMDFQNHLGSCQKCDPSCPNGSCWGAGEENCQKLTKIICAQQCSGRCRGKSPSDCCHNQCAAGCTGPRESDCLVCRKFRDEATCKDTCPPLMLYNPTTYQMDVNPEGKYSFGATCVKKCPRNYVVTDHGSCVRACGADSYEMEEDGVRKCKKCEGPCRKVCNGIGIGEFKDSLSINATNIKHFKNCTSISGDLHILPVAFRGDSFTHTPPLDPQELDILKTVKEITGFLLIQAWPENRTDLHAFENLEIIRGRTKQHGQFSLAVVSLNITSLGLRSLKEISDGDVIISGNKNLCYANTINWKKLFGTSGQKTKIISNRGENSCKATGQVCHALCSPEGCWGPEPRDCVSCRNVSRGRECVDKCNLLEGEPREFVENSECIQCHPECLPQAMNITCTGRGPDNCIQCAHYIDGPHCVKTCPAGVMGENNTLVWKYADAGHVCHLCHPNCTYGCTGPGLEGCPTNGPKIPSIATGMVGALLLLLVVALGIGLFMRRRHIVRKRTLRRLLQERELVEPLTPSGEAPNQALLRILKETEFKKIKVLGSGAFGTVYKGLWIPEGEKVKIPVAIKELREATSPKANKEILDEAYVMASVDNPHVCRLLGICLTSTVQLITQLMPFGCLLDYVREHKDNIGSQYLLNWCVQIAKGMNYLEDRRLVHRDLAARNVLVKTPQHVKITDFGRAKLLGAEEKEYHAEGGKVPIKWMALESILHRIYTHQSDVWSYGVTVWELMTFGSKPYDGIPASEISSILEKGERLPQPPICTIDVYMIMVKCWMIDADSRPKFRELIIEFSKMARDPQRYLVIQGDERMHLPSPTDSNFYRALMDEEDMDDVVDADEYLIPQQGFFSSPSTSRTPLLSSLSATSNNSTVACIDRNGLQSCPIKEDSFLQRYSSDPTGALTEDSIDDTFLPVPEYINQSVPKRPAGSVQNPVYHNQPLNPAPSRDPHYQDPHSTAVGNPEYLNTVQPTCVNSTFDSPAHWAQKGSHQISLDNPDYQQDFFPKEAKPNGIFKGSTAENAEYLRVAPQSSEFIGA
T1 sequence (P00533 with tags, fused parts or gaps DEL746-750 limits assumed): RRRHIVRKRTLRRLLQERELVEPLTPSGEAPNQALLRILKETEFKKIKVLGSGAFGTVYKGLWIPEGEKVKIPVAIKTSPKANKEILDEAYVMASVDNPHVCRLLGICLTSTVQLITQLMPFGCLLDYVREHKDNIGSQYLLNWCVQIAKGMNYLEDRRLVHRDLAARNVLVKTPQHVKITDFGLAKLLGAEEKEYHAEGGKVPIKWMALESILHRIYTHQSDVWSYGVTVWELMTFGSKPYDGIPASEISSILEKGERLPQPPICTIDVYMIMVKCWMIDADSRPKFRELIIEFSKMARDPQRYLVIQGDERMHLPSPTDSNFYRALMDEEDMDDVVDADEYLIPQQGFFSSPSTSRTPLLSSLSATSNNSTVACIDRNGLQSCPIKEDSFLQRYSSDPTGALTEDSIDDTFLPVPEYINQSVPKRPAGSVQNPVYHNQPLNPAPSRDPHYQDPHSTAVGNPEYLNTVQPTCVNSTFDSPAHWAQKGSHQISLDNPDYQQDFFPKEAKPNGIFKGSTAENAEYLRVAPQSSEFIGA
T9 sequence (P00533 25-1210 T790M/C797S/L858R): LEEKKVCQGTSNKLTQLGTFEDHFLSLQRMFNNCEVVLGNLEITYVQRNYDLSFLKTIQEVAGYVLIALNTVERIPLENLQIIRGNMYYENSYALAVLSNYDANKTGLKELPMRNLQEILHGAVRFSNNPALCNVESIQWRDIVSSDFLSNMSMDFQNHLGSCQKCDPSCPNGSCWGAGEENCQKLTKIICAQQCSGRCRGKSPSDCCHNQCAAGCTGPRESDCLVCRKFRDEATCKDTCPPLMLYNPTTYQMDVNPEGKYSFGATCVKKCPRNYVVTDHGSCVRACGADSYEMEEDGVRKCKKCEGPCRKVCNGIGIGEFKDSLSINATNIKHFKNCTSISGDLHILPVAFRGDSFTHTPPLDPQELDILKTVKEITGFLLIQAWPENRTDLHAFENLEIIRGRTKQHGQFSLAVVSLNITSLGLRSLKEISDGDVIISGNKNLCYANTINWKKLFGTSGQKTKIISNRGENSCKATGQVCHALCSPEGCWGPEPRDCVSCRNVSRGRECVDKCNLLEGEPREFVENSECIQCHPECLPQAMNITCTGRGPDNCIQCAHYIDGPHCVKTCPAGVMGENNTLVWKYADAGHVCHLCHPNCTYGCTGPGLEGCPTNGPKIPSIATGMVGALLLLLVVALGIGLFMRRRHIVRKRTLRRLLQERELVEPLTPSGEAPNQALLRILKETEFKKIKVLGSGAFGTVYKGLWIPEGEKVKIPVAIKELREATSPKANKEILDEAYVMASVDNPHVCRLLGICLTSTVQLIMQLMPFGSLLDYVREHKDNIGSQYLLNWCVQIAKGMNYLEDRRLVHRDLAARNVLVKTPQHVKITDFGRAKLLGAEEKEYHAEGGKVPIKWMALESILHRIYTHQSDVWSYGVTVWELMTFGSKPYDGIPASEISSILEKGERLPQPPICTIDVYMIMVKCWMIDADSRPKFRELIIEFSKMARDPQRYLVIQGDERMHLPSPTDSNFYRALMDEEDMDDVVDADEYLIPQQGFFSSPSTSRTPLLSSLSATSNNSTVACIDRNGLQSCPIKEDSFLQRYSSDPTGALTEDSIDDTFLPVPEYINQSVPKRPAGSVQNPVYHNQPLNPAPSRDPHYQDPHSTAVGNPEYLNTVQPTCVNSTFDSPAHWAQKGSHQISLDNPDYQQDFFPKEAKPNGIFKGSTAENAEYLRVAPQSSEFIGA
T4 sequence (P00533 with tags, fused parts or gaps DEL746-750/T790M/C797S limits assumed): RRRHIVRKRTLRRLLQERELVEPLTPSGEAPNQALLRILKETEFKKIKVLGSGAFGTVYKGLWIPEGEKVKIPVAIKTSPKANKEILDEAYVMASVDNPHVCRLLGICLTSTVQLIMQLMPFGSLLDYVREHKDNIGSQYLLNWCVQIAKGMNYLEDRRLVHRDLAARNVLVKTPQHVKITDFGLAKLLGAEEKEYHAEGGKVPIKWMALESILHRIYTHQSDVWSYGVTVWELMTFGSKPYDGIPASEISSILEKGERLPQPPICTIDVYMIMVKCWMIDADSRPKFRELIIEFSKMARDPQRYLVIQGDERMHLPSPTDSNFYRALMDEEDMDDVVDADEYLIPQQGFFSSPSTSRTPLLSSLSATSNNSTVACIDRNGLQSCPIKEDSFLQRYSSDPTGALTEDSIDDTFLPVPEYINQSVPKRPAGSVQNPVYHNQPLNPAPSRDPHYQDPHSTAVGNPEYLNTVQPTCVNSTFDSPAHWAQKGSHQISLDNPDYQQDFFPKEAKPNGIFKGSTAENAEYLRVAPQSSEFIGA

Row | Compound | GI50 ([2]; Homo sapiens, PC-9, 72 h) [nM] | GI50 [4, 13] [nM] | GI50 [4, 14] [nM] | GI50 [4, 15] [nM] | GI50 [4, 16] [nM] | GI50 [4, 17] [nM] | GI50 [4, 18] [nM] | GI50 [4, 19] [nM] | GI50 [6, 20] [nM] | IC50 [1, 21] [nM] | IC50 [3, 22] [nM] | IC50 [5, 23] [nM] | IC50 [7, 24] [nM] | IC50 [8, 25] [nM] | IC50 [9, 26] [nM] | IC50 [10, 27] [nM] | IC50 [11, 28] [nM] | IC50 [12, 29] [nM] | GI50 [2] [nM] | GI50 [4, 30] [nM] | also measured
1 | C[C@@H]1CCCOc2ccc(F)cc2-c2cc(cn(C)c2=O)C(=O)Nc2nc3ccc(N4CCN(C)CC4)cc3n2C1 [Example A110, (12R)-4-fluoro-12,27-dimethyl-17-(4-methylpiperazin-1-yl)-8-oxa-14,21,23,27-tetraazapentacyclo[23.3.1.0^{2,7}.0^{14,22}.0^{15,20}]nonacosa-1(29),2(7),3,5,15,17,19,21,25-nonaene-24,28-dione] | 112 | 2.6 | 26 | 14 | 30 | 50 | 9.6 | 22 | 529 | – | – | – | – | – | – | – | – | – | – | – | IC50 ([1]; EGFR Del19, 1 mM ATP, 1 h, room temperature): 2.8 nM; IC50 ([3]; EGFR Del19-C797S, 1 h, room temperature, read-out: IC50 (nM) @Del19-C797S): 1.7 nM; IC50 ([5]; 1 h, room temperature, read-out: IC50 (nM) @L858R): 6.2 nM; IC50 ([7]; EGFR T790M-C797S-Del19, 1 mM ATP, 1 h, room temperature, read-out: IC50 (nM) @T790M - C797S - Del19): 3.2 nM; IC50 ([8]; EGFR WT, 1 h, room temperature, read-out: IC50 (nM) @WT): 216 nM; IC50 ([9]; EGFR L858-C797S, 1 h, room temperature, read-out: IC50 (nM) @L858-C797S): 4.9 nM; IC50 ([10]; EGFR L858R-T790M, 1 h, room temperature, read-out: IC50 (nM) @L858R-T790M): 5.1 nM; IC50 ([11]; EGFR Del19-T790M, 1 h, room temperature, read-out: IC50 (nM) @Del19-T790M): 2.9 nM; IC50 ([12]; EGFR T790M-C797S-L858R, 1 h, room temperature, read-out: IC50 (nM) @T790M- C797S - L858R): 6.1 nM
2 | Cc1cc2cc(n1)-c1cnn(C)c1OCCN1CC3CCC(C3)(C1)n1c(nc3ccccc31)NC2=O (single isomer, unassigned) [Example B8A, 15,21-dimethyl-23-oxa-2,9,11,16,20,21,26-heptaazaheptacyclo[24.4.1.1^{1,28}.1^{13,17}.0^{2,10}.0^{3,8}.0^{18,22}]tritriaconta-3,5,7,9,13,15,17(33),18(22),19-nonaen-12-one] | 2850 | 620 | 251 | 2120 | 290 | 1170 | 3560 | 298 | 6390 | 729 | 659 | > 5000 | 3990 | > 5000 | > 5000 | > 5000 | 4000 | > 5000 | – | – | –
3 | Cc1cc2cc(n1)-c1cnn(C)c1OCCCCCn1c(nc3ccc4c(c31)CCNC4)NC2=O [Example B16, 5,30-dimethyl-7-oxa-4,5,13,18,24,26,31-heptaazahexacyclo[26.3.1.0^{2,6}.0^{13,25}.0^{14,23}.0^{15,20}]dotriaconta-1(31),2(6),3,14,20,22,24,28(32),29-nonaen-27-one] | 438 | 57 | – | 297 | 8.8 | 308 | 286 | 29 | 3230 | 497 | 197 | > 5000 | 3.2 | > 5000 | > 5000 | 446 | 7.1 | 55 | – | – | –
4 | Cc1cc2cc(n1)-c1cnn(C)c1OCCN1CC3CCC(C3)(C1)n1c(nc3ccc(N4CC5CC4CN5C)cc31)NC2=O (single isomer, unassigned) [Example B53B] | – | – | – | – | – | – | – | – | 2570 | 5.2 | 1.9 | 53 | 1.9 | 971 | 9.5 | 2.6 | 3.9 | 1.7 | 10 | 2 | GI50 [4, 31]: 2 nM; GI50 [4, 32]: 4 nM; GI50 [4, 33]: 2 nM; GI50 [4, 34]: 2 nM; GI50 [4, 35]: 13 nM; GI50 [4, 36]: 6 nM
5 | Cc1cc2cc(n1)-c1cnn(C)c1OCCN1CC3CCC(C3)(C1)n1c(nc3ccc(N4CCC5(CC4)CCN5C)cc31)NC2=O (single isomer, unassigned) [Example B54B] | – | – | – | – | – | – | – | – | – | 4.9 | 2 | 13 | 2.5 | 121 | 3.9 | 3.1 | 3.9 | 1.6 | 3 | 2 | GI50 [4, 31]: 2 nM; GI50 [4, 32]: 2 nM; GI50 [4, 33]: 2 nM; GI50 [4, 34]: 2 nM; GI50 [4, 35]: 2 nM; GI50 [4, 36]: 6 nM; GI50 ([6]; A-431 cells): 795 nM
